Where two headings read alike, the source gives them in different places.
Experiments:
B16-F1 melanoma cells = assay: B16-F1 melanoma colony formation assay in soft agar; assay type: cell-based, mouse; settings: 14 days
Procedure: B16-F1 melanoma cells were plated at a colony-forming density (2000 cells per well on six-well plates) on top of 0.8% base agar. Cells were grown in 0.4% agar together with DMEM medium supplemented with fetal bovine serum and an antibiotic-antimycotic solution at 37° C. in an atmosphere of 95% air and 5% CO2. […] Compounds were added to the media from 1 mM DMSO stock solutions, and a corresponding dilution of DMSO was used as control. Cells were grown for 14 days. Plates were photographed, and the number of colonies was measured by Artek 880 Automated Colony Counter (Artek Systems Corporation, Farmingdale, N.Y.).

[1] = system: A375 human melanoma xenograft; assay: A375 human melanoma xenograft in SHO nude mice; assay type: in vivo; settings: 12fb 25 mg/kg, 31 days
Procedure: SHO nude mice bearing an A375 human melanoma xenograft (n=5 per group). Each mouse received 2.5×10^6 cells by s.c. injection into the flank. 30 μL i.p. daily treatments were started when the tumor size reached ˜150 mm^3. Control, vehicle solution only; points, means; bars, SD.
In vivo evaluation of efficacy. […] The cell suspension (100 μL) was injected subcutaneously in the right dorsal flank of each mouse. When tumor size reached about 100-150 mm^3, about 7 days after cell inoculation, all mice bearing tumors were divided into control and treatment groups based on tumor size (n=5 per group). Each group had similar average tumor size. Mice in control groups (negative control) were injected intraperitoneally with 50 μL vehicle solution only or DTIC at 60 mg/kg (positive control) once daily. Tumor volume was measured every 2 days with a traceable electronic digital caliper (Fisher Scientific, Inc., Pittsburgh, Pa.) and calculated using the formula a×b^2×0.5, where a and b represented the larger and smaller diameters, respectively. Tumor volume was expressed in cubic millimeters. Data were expressed as mean±SE for each group and plotted as a function of time. […] Animal activity and average body weight of each group were monitored during the entire experiment period to assess compound toxicity. […]

[2] = system: melanoma nodules in the lungs; assay: Melanoma lung metastasis model in mice; assay type: in vivo, mouse; settings: i.p. injection 5 days per week for 2 weeks (n=8 per group)
Excerpt: Panel A: Representative photos of lungs with melanoma nodules (black dots, n=8 per group). Treatment was i.p. injection 5 days per week for 2 weeks. Panel B: Number of melanoma nodules on each lung. Points: individual nodule number; long line in the middle: mean; short line on the top and bottom: 95% confidence intervals ** and ##: p<0.01. Panel C: Mouse body weight changes during the experiment. Points: means; bars: SD. Control: vehicle solution only.

A375RF21 = assay: In vitro combination assay (combination index) in A375RF21; assay type: cell-based, human; settings: combination with vemurafenib
Excerpt: (§3) Cell proliferation viability was investigated using MTS or SRB assay as described previously. An in vitro study of the combination of vemurafenib and the tubulin inhibitors was designed and conducted using CalcuSyn software (Biosoft, Ferguson, Mo.) with five duplicates of each set of treatment. Drug concentrations were selected based on the IC50 value of each drug tested from a pilot study.

A375RF21 cells [3] = assay: Cell cycle analysis (flow cytometry) in A375RF21; assay type: cell-based, human; settings: for G2/M arrest: A375RF21, 20 nM
Procedure: (§1) Flow cytometry analysis was performed as described before (Wang Z, Chen J, Wang J, et al. “Novel tubulin polymerization inhibitors overcome multidrug resistance and reduce melanoma lung metastasis.” Pharm. Res. (2012) 29: 3040-3052). To determine cell cycle distributions in the G2 and M phases (FIG. 23), cells were harvested with trypsin, stained using antiphospho-histone H3-AlexaFluor® 488 antibody on ice for one hour in the dark, followed by stained using PI/RNase solution for 30 minutes at room temperature in the dark per the manufacturer's instructions (#FCCH025103, EMD Millipore Corporation, Ballerica, Mass.). Data were further processed and graphs were prepared using the Modfit 2.0 program (Verity Software House, Topsham, Me.).

[4] = system: pAKT/tAKT and pERK in A375RF21 cells; assay: Western blot analysis in A375RF21; assay type: cell-based, human
Procedure: (§2) At the indicated time treatment, human melanoma A375RF21, MDA-MB-435 or WM164 cells were collected to investigate relevant cascade protein or apoptosis markers by western blots. Total protein was extracted by lysing cells with RIPA buffer (Sigma-Aldrich, St. Louis, Mo.) containing phosphatase-proteinase inhibitor cocktail (Sigma-Aldrich, St. Louis, Mo.). General protein concentration was then determined by BCA method using kit (Sigma-Aldrich, St. Louis, Mo.). The cell lysates were diluted to equal general protein concentration using Laemmli loading buffer (Bio-Rad, Hercules, Calif.) and boiled for 5 min to denature the protein. Then group samples containing 10 μg general proteins were loaded to each well of 4-15% Tris-HCl pre-cast polyacrylamide gel (Bio-Rad, Hercules, Calif.) for electrophoresis and subsequently transferred to 0.2 μm nitrocellulose membrane (Bio-Rad, Hercules, Calif.). […] Target proteins were detected by incubating with 1× LumiGLO® reagent (Cell Signaling, #7003) for one minute and exposed to x-ray film. The films were scanned with grey scale and lane intensities were quantified with the ImageJ software (NIH, Bethesda, Md., USA).

OVCAR-8 = assay: In vitro growth inhibition, OVCAR-8; assay type: cell-based; settings: Homo sapiens, OVCAR-8; Table 9; read-out: IC50 ± SEM (nM) OVCAR-8
NCl/ADR-RES = assay: In vitro growth inhibition, NCI/ADR-RES; assay type: cell-based; settings: Homo sapiens, Table 9, read-out: IC50 ± SEM (nM) NCl/ADR-RES
Bovine brain tubulin [5] = target: T1, Bovine brain tubulin (Bos taurus, UniProt P81947+Q6B856); assay: In vitro microtubule polymerization assay (Example 6); assay type: biochemical; settings: absorbance at 340 nm, 15 min; for inhibition of tubulin polymerization: 10 μM
T1 construct: purchased Cytoskeleton, Denver, Colo; host or cells: brain tissue
Procedure: The absorbance at 340 nm was monitored every 1 min for 15 min by the SYNERGY 4 Microplate Reader (Bio-Tek Instruments, Winooski, Vt.). The spectrophotometer was set at 37° C. for tubulin polymerization.

pAKT/tAKT in WM164 cells = assay: Western blot analysis in WM164; assay type: cell-based, human; settings: WM164, 48 h
Procedure: as §2

[6] = system: pAKT/tAKT in MDA-MB-435 cells; assay: Western blot analysis in MDA-MB-435; assay type: cell-based, human; settings: MDA-MB-435, 48 h
Procedure: as §2

[7] = system: A375 human melanoma xenograft; settings: 12da 25 mg/kg; Wang Z et al., Pharm. Res. 29(11); cited from earlier work
[8] = system: three melanoma cell lines and four human prostate cancer cell lines; assay: Antiproliferative activity, average over melanoma and prostate cancer cell lines; assay type: cell-based; settings: for IC50: Homo sapiens, discussion of Tables 8-10
A375 cells [9] = assay: Cell cycle analysis (flow cytometry) in A375; assay type: cell-based, human
Procedure: as §1

A375 cells [10] = assay: Cell proliferation MTS assay, parental A375; settings: Homo sapiens, A-375, read-out: IC50 for proliferation inhibition
Excerpt: as §3

Bovine brain tubulin [11] = assay: HTS-tubulin polymerization assay (Example 1); settings: 20 μM, purified-protein assay
A375RF21 cells [12] = assay: Apoptosis detection (Annexin V-FITC / propidium iodide); settings: A375RF21, 48 h, Annexin V / propidium iodide flow cytometry
A375RF21 cells [13] = assay: Cell proliferation MTS assay, vemurafenib-resistant A375RF21
Excerpt: as §3

PC-3 = assay: Apoptosis (cytoplasmic DNA-histone complex formation) in PC-3; assay type: cell-based, human; settings: PC-3, 0.8 to 600 nmol/L, 24 h
PC-3/TxR = assay: Apoptosis (cytoplasmic DNA-histone complex formation) in PC-3/TxR; assay type: cell-based, human; settings: 0.8 to 600 nmol/L, 24 h
PC-3/TxR tumors = settings: PC-3/TxR xenograft, day 1 and 9; for Tumor size, End: end point day 19
PC-3 tumors = assay: PC-3 xenograft in nude mice; settings: day 1 and 9, end point day 19
A375 = assay: Cell culture cytotoxicity (SRB) assay, A375; assay type: cell-based, human; settings: Table 9, SRB, 48 h; read-out: IC50 ± SEM (nM) A375

T1 sequence (P81947 whole entry): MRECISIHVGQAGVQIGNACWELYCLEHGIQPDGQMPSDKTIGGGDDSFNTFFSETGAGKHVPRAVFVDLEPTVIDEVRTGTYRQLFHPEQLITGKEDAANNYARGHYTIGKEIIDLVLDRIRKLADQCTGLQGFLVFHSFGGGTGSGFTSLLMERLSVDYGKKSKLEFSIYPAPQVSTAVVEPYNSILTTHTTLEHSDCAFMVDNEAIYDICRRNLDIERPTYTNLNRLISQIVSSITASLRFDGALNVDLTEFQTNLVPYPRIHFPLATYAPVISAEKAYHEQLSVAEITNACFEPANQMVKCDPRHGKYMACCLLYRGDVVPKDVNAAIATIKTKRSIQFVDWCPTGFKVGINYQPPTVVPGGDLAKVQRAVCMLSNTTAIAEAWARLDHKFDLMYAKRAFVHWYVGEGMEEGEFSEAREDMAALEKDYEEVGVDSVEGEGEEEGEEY
T1 sequence (Q6B856 whole entry): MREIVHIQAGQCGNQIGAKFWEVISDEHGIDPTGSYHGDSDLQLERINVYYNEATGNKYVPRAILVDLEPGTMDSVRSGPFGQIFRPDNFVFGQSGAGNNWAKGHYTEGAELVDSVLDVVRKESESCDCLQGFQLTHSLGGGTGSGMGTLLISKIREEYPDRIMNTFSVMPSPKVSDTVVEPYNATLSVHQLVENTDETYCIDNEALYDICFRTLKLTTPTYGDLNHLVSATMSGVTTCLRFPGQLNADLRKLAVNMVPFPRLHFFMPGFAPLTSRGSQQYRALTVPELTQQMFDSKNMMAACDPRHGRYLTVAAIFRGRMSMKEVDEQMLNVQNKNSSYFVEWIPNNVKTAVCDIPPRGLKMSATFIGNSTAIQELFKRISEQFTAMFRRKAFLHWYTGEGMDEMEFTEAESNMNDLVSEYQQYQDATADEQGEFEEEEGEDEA

For `O=C(c1ccc(F)cc1)c1c[nH]c(-c2ccc(Cl)cc2)n1` [12fb, (2-(4-chlorophenyl)-1H-imidazol-4-yl)(4-fluorophenyl)methanone], the “inhibition of colony formation” value (B16-F1 melanoma cells; 100 nM) was “effective inhibition”, the tolerability [1] was “well tolerated dose” and the “inhibition of metastasis of melanoma to the lungs” value (“inhibition … to the lungs” below) [2] was “inhibition”.

In the case of `COc1cc(C(=O)c2c[nH]c(-c3ccc(C)cc3)n2)cc(OC)c1OC` [12da, (2-(p-tolyl)-1H-imidazol-4-yl)(3,4,5-trimethoxyphenyl)methanone], the “calculated CI values, all concentrations tested” value (A375RF21) is reported as 0.53-0.70, the G2/M arrest (A375RF21 cells [3]; 24 h) is reported as “induced G2/M arrest” and the “effect on pERK or total ERK level” value ([4]; A375RF21, 48 h incubation) is reported as “no obvious effect”. For the same molecule, the IC50 (OVCAR-8) was 47 nM, the IC50 (NCl/ADR-RES) was 19 nM and the “inhibition of tubulin polymerization” value (Bovine brain tubulin [5]) was “inhibited tubulin polymerization”. The “inhibition of colony formation” value (B16-F1 melanoma cells; 20 nM) was “effectively inhibited”, the “inhibition … to the lungs” value [2] was “inhibition” and the pAKT/tAKT inhibition (pAKT/tAKT in WM164 cells) was “strong dose-dependent pAKT/tAKT inhibition effects”. The pAKT/tAKT inhibition [6] was “strong dose-dependent pAKT/tAKT inhibition effects” and the “suppression of parental A375 melanoma tumor growth in vivo” value [7] was “effective”.

In the case of `COc1cc(C(=O)c2c[nH]c(-c3cc(OC)c(OC)c(OC)c3)n2)cc(OC)c1OC` [12ea, (3,4,5-trimethoxyphenyl)(2-(3,4,5-trimethoxyphenyl)-1H-imidazol-4-yl)methanone], the IC50 [8] is reported as 1 to 50 µM.

With `COc1ccc(-c2nc(C(=O)c3ccc(F)cc3)c[nH]2)cc1` [12cb, (4-fluorophenyl)(2-(4-methoxyphenyl)-1H-imidazol-4-yl)methanone] the “inhibition of tubulin polymerization” value (Bovine brain tubulin [5]) was “inhibited tubulin polymerization”, the inhibition at 10 µM (Bovine brain tubulin [5]) was about 80% and the “inhibition of colony formation” value (B16-F1 melanoma cells; 20 nM) was “effectively inhibited”. The “inhibition … to the lungs” value [2] was “inhibition”.

For `O=C(c1ccc(F)cc1)c1c[nH]c(-c2ccc(OCc3ccccc3)cc2)n1` [12jb, (2-(4-(benzyloxy)phenyl)-1H-imidazol-4-yl)(4-fluorophenyl)methanone], the “fold increase in activity compared with the para-hydroxy compound 12kb” value ([8]; discussion of Table 9) was 440 fold.

In the case of `Cc1ccc(-c2nc(C(=O)c3ccc(F)cc3)c[nH]2)cc1` [12db, (4-fluorophenyl)(2-(p-tolyl)-1H-imidazol-4-yl)methanone], the “inhibition of tubulin polymerization” value (Bovine brain tubulin [5]) is reported as “inhibited tubulin polymerization”.

With `O=C(c1ccc(F)cc1)c1c[nH]c(-c2ccccc2C(F)(F)F)n1` [12ib, (4-fluorophenyl)(2-(2-(trifluoromethyl)phenyl)-1H-imidazol-4-yl)methanone] the IC50 [8] was 1 to 50 µM.

With `CCCS(=O)(=O)Nc1ccc(F)c(C(=O)c2c[nH]c3ncc(-c4ccc(Cl)cc4)cc23)c1F` [Vemurafenib] the G0/G1 arrest (A375RF21 cells [3]; A375RF21, 1 μM, 24 h) was “could not arrest”, the “concentration needed to produce G0/G1 cell cycle arrest” value (A375RF21 cells [3]; resistant A375RF21, single agent) was at least 30 µM and the G0/G1 arrest (A375 cells [9]; A375, 1 μM, 24 h) was “effectively arrested”. The “concentration needed to produce G0/G1 cell cycle arrest” value (A375 cells [9]; parental A375, single agent) was “less than 1 μM”, the “level of pAKT relative to tAKT” value ([4]; A375RF21, 48 h, quantified lane density) was 70% and the IC50 (A375 cells [10]) was 0.57 ± 0.03 µM. The “effect on tubulin polymerization” value (Bovine brain tubulin [11]) was “did not significantly influence tubulin polymerization”, the “effect on tubulin polymerization” value (Bovine brain tubulin [11]; listed as vemurafenib) was “did not have any effect on tubulin polymerization” and the “cell apoptosis or death (sum of Q1, Q2 and Q4)” value (A375RF21 cells [12]) was 11.9±3.5%. The IC50 (A375RF21 cells [13]; Homo sapiens, read-out: IC50 for proliferation inhibition) was 28.9 ± 0.6 µM and the “fold increase of IC50 in A375RF21 versus parental A375” value (A375RF21 cells [13]; MTS assay) was “over 50 fold”.

In the case of `CC(=O)O[C@@]12CO[C@@H]1C[C@H](O)[C@@]1(C)C(=O)[C@H](O)C3=C(C)[C@@H](OC(=O)[C@H](O)[C@@H](NC(=O)OC(C)(C)C)c4ccccc4)C[C@@](O)([C@@H](OC(=O)c4ccccc4)[C@H]21)C3(C)C` [Docetaxel, reference compound], the G2/M arrest (A375RF21 cells [3]; 24 h) is reported as “induced G2/M arrest”, the “induction of cell apoptosis (DNA-histone complexes)” value (PC-3) is reported as “highly potent to induce apoptosis” and the “induction of cell apoptosis (DNA-histone complexes)” value (PC-3/TxR) is reported as “weaker”. For the same molecule, the “Tumor size, End” value (PC-3/TxR tumors; IV 10 mpk) was 1774 ± 183 mm^3, the “Tumor size, Start” value (PC-3/TxR tumors; IV 10 mpk) was 143 ± 20 mm^3 and the “Tumor size, End” value (PC-3/TxR tumors; IV 20 mpk) was 999 ± 905 mm^3. For the same molecule, the “Tumor size, Start” value (PC-3/TxR tumors; IV 20 mpk) was 170 ± 86 mm^3, the “Body weight, End” value (PC-3 tumors; IV 10 mpk) was 24 ± 2 g and the “Body weight, End” value (PC-3 tumors; IV 20 mpk) was 24 ± 3 g. For the same molecule, the “cell apoptosis or death (sum of Q1, Q2 and Q4)” value (A375RF21 cells [12]) was 6.4±3.0%.

In the case of `COc1cc(C(=O)c2c[nH]c(-c3ccc(O)cc3)n2)cc(O)c1OC` [12kc], the IC50 (A375) is reported as 10000 nM.

From patent publication US20180325872A1, “COMPOUNDS FOR TREATMENT OF CANCER” (UNIVERSITY OF TENNESSEE RESEARCH FOUNDATION, priority 2013, published 2018)
